Measurements as given in ChEMBL document CHEMBL1201862, “PubChem BioAssay data set” (2004).
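96-well plates; 48 h exposure; 5 concentrations. Endpoints by linear interpolation between flanking doses. Not reached: highest tested concentration assigned. At the GI50, growth is halved.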 The source made the active and inactive calls. No stated cut-off is given here; in the data, active = GI50 up to about 1.1 µM and inactive = higher.

How the values were obtained:
Assay in all cases: NCI-60 cell line screen, 48 h
[1] = tested on: HT-29
[2] = tested on: A549
[3] = tested on: LOX IMVI
[4] = tested on: K562
[5] = tested on: RPMI-8226
[6] = tested on: NCI-H460
[7] = tested on: M14
[8] = tested on: SK-MEL-2
[9] = tested on: ACHN
[10] = tested on: CCRF-CEM
[11] = tested on: U-251
[12] = tested on: NCI-H23
[13] = tested on: HL-60
[14] = tested on: SNB-75
[15] = tested on: SW-620
[16] = tested on: SNB-19

Measured: GI50

O=C1Nc2ccccc2Nc2nc3cccccc-3c21
inactive: [1] > 100 µM | [2] > 100 µM | [3] > 100 µM | [4] > 100 µM | [5] > 100 µM | [6] > 100 µM | [7] > 100 µM | [8] > 100 µM | [9] > 100 µM | [10] > 100 µM | [11] > 100 µM | [12] > 100 µM | [13] > 100 µM | [14] > 100 µM | [15] > 100 µM | [16] > 100 µM

COc1c(OC(C)=O)cc2c(OC(C)=O)c1CC(C)CC(OC)C(O)C(C)/C=C(\C)C(OC(N)=O)C(OC)/C=C\C=C(/C)C(=O)N2 (stereo not given)
inactive: [1] > 81.8 µM | [2] > 71.3 µM | [3] > 100 µM | [4] > 26.3 µM | [5] > 54.5 µM | [6] > 100 µM | [7] > 100 µM | [8] > 100 µM | [9] > 100 µM | [10] > 53.5 µM | [11] > 100 µM | [12] > 100 µM | [13] > 41.5 µM | [14] > 100 µM | [15] 24 µM | [16] > 100 µM

COc1cc(C2=NN(C)C(c3ccc([N+](=O)[O-])o3)C2)cc(OC)c1OC (stereo not given)
inactive: [1] 72.4 µM | [2] > 100 µM | [3] 69 µM | [4] 52 µM | [5] 1.78 µM | [6] 41.9 µM | [7] 53.8 µM | [8] > 100 µM | [9] > 100 µM | [10] 22.2 µM | [11] 56.8 µM | [12] > 100 µM | [13] 18.2 µM | [14] 83.2 µM | [15] 11 µM | [16] > 100 µM

Cc1cnc2ccc(C)c([N+](=O)[O-])c2c1NCCCN(C)C
inactive: [1] > 100 µM | [2] > 100 µM | [3] > 100 µM | [4] > 100 µM | [5] > 100 µM | [6] > 100 µM | [7] > 100 µM | [8] > 100 µM | [9] > 100 µM | [10] > 100 µM | [11] > 100 µM | [12] > 100 µM | [13] > 100 µM | [15] > 100 µM | [16] > 100 µM

COc1ccc(OC)c(-c2cc(O)c3cc4c(cc3n2)OCO4)c1
inactive: [1] 4.12 µM | [2] 5.87 µM | [3] 6.07 µM | [4] 4.11 µM | [5] 4.18 µM | [6] 3.41 µM | [7] 3.94 µM | [8] 4.1 µM | [9] 6.58 µM | [10] 4.36 µM | [11] 7.59 µM | [12] 3.44 µM | [13] 2.96 µM | [14] 3.44 µM | [15] 3.83 µM | [16] 18.5 µM

CCOC(=O)/C(C#N)=C/c1[nH]c(C)c(C)c1C
inactive: [1] > 100 µM | [2] > 100 µM | [3] > 100 µM | [4] > 100 µM | [5] > 100 µM | [6] > 100 µM | [7] > 100 µM | [8] > 100 µM | [10] > 100 µM | [11] > 100 µM | [12] > 100 µM | [13] > 100 µM | [14] > 100 µM | [15] > 100 µM | [16] > 100 µM

COc1cc(C(=O)N2CCc3c([nH]c4c([N+](=O)[O-])c(OC)ccc34)C2C)cc(OC)c1OC (stereo not given)
inactive: [1] > 100 µM | [2] > 100 µM | [3] > 100 µM | [4] > 100 µM | [5] > 100 µM | [6] > 100 µM | [7] > 100 µM | [8] > 100 µM | [9] > 100 µM | [10] > 100 µM | [11] > 100 µM | [12] > 100 µM | [13] > 100 µM | [14] 40.8 µM | [15] > 100 µM | [16] > 100 µM

CC1=C(C(=O)Nc2ccc([N+](=O)[O-])cc2)C(c2ccccc2O)C(C(=O)Nc2ccc([N+](=O)[O-])cc2)=C(C)N1
inactive: [1] 28.4 µM | [2] 28.2 µM | [3] 16.1 µM | [4] 17.9 µM | [5] 17.6 µM | [6] 21.4 µM | [7] 19.3 µM | [8] 15.6 µM | [9] 13.8 µM | [10] 18 µM | [11] 21.4 µM | [12] 18.6 µM | [13] 19.2 µM | [14] 25.8 µM | [15] 29.2 µM | [16] 37.2 µM

CS(=O)(=O)OCCn1cnc2nc(NC(=O)c3ccccc3)[nH]c(=O)c21
inactive: [1] > 100 µM | [2] > 100 µM | [3] > 100 µM | [4] > 100 µM | [5] > 100 µM | [6] > 100 µM | [7] > 100 µM | [8] > 100 µM | [9] > 100 µM | [10] > 100 µM | [11] > 100 µM | [13] > 100 µM | [14] > 100 µM | [15] > 100 µM | [16] > 100 µM

NNC(=O)N/N=C1\CN(c2ccc(Cl)cc2Cl)C(=O)C(=O)C1c1nc2ccccc2o1 (stereo not given)
inactive: [1] > 100 µM | [2] > 100 µM | [4] > 100 µM | [5] > 100 µM | [6] > 100 µM | [7] > 100 µM | [8] > 100 µM | [9] > 100 µM | [10] > 100 µM | [11] 54.8 µM | [12] 85.5 µM | [14] > 100 µM | [15] > 100 µM | [16] > 100 µM

O=C(c1ccccc1)N1C2CCC1C(C(F)(F)F)=C2C(F)(F)F
inactive: [1] > 100 µM | [2] > 100 µM | [3] > 100 µM | [4] > 100 µM | [5] > 100 µM | [6] > 100 µM | [7] > 100 µM | [10] > 100 µM | [11] > 100 µM | [12] > 100 µM | [13] 45.7 µM | [14] > 100 µM | [15] > 100 µM | [16] > 100 µM

O=C1c2cnccc2Cc2cccc3c2N1c1ccccc1S3
inactive: [1] 23.9 µM | [2] 23.6 µM | [3] 22.7 µM | [4] 20.8 µM | [5] 20.6 µM | [7] 24.3 µM | [8] 16.8 µM | [9] 19 µM | [10] 27.5 µM | [11] 16.6 µM | [12] 20.1 µM | [13] 21.1 µM | [14] 12.6 µM | [15] 27.8 µM | [16] 30.9 µM

CC(C)C12Cc3c(ccc4ccccc34)OC1(C)Oc1ccc3ccccc3c1C2 (stereo not given)
inactive: [1] > 100 µM | [2] > 100 µM | [3] > 100 µM | [4] > 100 µM | [6] > 100 µM | [7] > 100 µM | [8] > 100 µM | [9] > 100 µM | [10] > 100 µM | [11] > 100 µM | [12] > 100 µM | [14] > 100 µM | [15] > 100 µM | [16] > 100 µM

O=C(O)/C(Cl)=C(\Cl)C(=O)Nc1ccccc1
inactive: [1] > 100 µM | [2] > 100 µM | [3] > 100 µM | [4] > 100 µM | [5] > 100 µM | [6] > 100 µM | [7] > 100 µM | [8] > 100 µM | [9] > 100 µM | [10] 69.3 µM | [11] > 100 µM | [12] > 100 µM | [14] > 100 µM | [15] > 100 µM | [16] > 100 µM

COc1ccc2c3c(c(C(=O)O)oc13)C(CCC(=O)O)CC2 (stereo not given)
inactive: [1] > 100 µM | [2] > 100 µM | [3] > 100 µM | [6] > 100 µM | [7] > 100 µM | [9] > 100 µM | [11] > 100 µM | [12] > 100 µM | [14] > 100 µM | [15] > 100 µM | [16] > 100 µM

CCCCCCCCCCCCCC(=O)OC1CC(=O)OC1CO (stereo not given)
inactive: [1] 32.1 µM | [2] 55.1 µM | [3] 28.2 µM | [4] 21.9 µM | [5] 36.5 µM | [6] 34.2 µM | [7] 19.3 µM | [8] > 100 µM | [9] 46 µM | [10] 25.5 µM | [11] 53.6 µM | [13] 23 µM | [14] 79.6 µM | [15] 71.6 µM | [16] 32.8 µM

Cc1cc(N(CCC#N)CCC#N)ccc1/N=N/c1ccccc1[N+](=O)[O-]
inactive: [1] > 100 µM | [2] > 100 µM | [3] > 100 µM | [4] > 100 µM | [7] > 100 µM | [8] > 100 µM | [9] > 100 µM | [10] > 100 µM | [11] > 100 µM | [12] > 100 µM | [13] > 100 µM | [14] 34 µM | [15] > 100 µM

CCOC(=O)C(=O)Nc1cc(Cl)c(Cl)cc1Cl
inactive: [1] > 100 µM | [3] > 100 µM | [4] > 100 µM | [5] > 100 µM | [6] > 100 µM | [7] > 100 µM | [8] > 100 µM | [9] > 100 µM | [11] > 100 µM | [12] > 100 µM | [14] > 100 µM | [15] > 100 µM | [16] > 100 µM
